Laboratory results taken from patent publication US11622937B2, “Polyphenolic polymer to make water-insoluble molecules become water-soluble” (priority 2015, dated 2023).
Where a name gives a salt, the structure may show the parent alone.

How the values were obtained:
[1] = Solubility with Polyphenolic Polymer in water; conditions: molecule formulated with Polyphenolic Polymer
[2] = cited from earlier work

Solubility with Polyphenolic Polymer in water (more than 99%) [1] | Molecule | Reported Solubility in water [2]
Water Soluble | CC(=O)O[C@@]12CO[C@@H]1C[C@H](O)[C@@]1(C)C(=O)[C@H](O)C3=C(C)[C@@H](OC(=O)[C@H](O)[C@@H](NC(=O)OC(C)(C)C)c4ccccc4)C[C@@](O)([C@@H](OC(=O)c4ccccc4)[C@H]21)C3(C)C [Docetaxel] | Insoluble
Water Soluble | O=C1CCc2cc(OCCCCc3nnnn3C3CCCCC3)ccc2N1 [Cilostazol] | Insoluble
 | NC(N)=Nc1nc(CSCCC(N)=NS(N)(=O)=O)cs1 [Famotidine] | Insoluble
 | CC1(C)S[C@@H]2[C@H](NC(=O)C(C(=O)O)c3ccccc3)C(=O)N2[C@H]1C(=O)O (stereo partly shown) [Carbenicillin disodium] | Insoluble
 | CCn1cc(C(=O)O)c(=O)c2cc(F)c(N3CCNCC3)cc21 [Norfloxacin(antibiotic), Norfloxacin] | Insoluble
Water Soluble | Cc1nc2n(c(=O)c1CCN1CCC(c3noc4cc(F)ccc34)CC1)CCCC2O (stereo not shown) [Paliperidone] | Insoluble
 | C=CC(=O)N1CCC[C@@H](n2nc(-c3ccc(Oc4ccccc4)cc3)c3c(N)ncnc32)C1 [PCI-32765] | Insoluble
 | CS(=O)(=O)OCCCCOS(C)(=O)=O [Busulphan] | Insoluble
Water Soluble | Nc1cccc2c1CN(C1CCC(=O)NC1=O)C2=O (stereo not shown) [Lenalidomide] | Insoluble
Water Soluble | CN(Cc1cnc2nc(N)nc(N)c2n1)c1ccc(C(=O)N[C@@H](CCC(=O)O)C(=O)O)cc1 [Methotrexate] | Insoluble
Water Soluble | CC[C@H](C)C(=O)O[C@H]1C[C@H](O)C=C2C=C[C@H](C)[C@H](CC[C@@H](O)C[C@@H](O)CC(=O)O)[C@H]21 [Pravastatin Sodium] | Insoluble
Water Soluble | COc1cccc2c1C(=O)c1c(O)c3c(c(O)c1C2=O)C[C@@](O)(C(=O)CO)C[C@@H]3O[C@H]1C[C@H](N)[C@H](O)[C@H](C)O1 [Doxorubicin] | Insoluble
 | O=c1[nH]c2ccccc2n1CCCN1CCC(n2c(=O)[nH]c3cc(Cl)ccc32)CC1 [Domperidone] | Insoluble
Water Soluble | CCCC1O[C@@H]2C[C@H]3[C@@H]4CCC5=CC(=O)C=C[C@]5(C)[C@H]4[C@@H](O)C[C@]3(C)[C@]2(C(=O)CO)O1 (stereo partly shown) [Budesonide, 98%, Budesonide] | Insoluble
Water Soluble | C[C@@H]1C[C@H]2[C@@H]3CCC4=CC(=O)C=C[C@]4(C)[C@@]3(F)[C@@H](O)C[C@]2(C)[C@@]1(O)C(=O)CO [Dexamethasone] | Insoluble
 | COc1cc([C@@H]2c3cc4c(cc3[C@@H](O[C@@H]3O[C@@H]5CO[C@@H](C)O[C@H]5[C@H](O)[C@H]3O)[C@H]3COC(=O)[C@H]23)OCO4)cc(OC)c1O [Etoposide] | Insoluble
 | CC(C)(C)NC(=O)[C@H]1CC[C@H]2[C@@H]3CC[C@H]4NC(=O)C=C[C@]4(C)[C@H]3CC[C@]12C [Finasteride] | Insoluble
Water Soluble | CC[C@H]1OC(=O)[C@H](C)[C@@H](O[C@H]2C[C@@](C)(OC)[C@@H](O)[C@H](C)O2)[C@H](C)[C@@H](O[C@@H]2O[C@H](C)C[C@H](N(C)C)[C@H]2O)[C@](C)(OC)C[C@@H](C)C(=O)[C@H](C)[C@@H](O)[C@]1(C)O [Clarithromycin] | Insoluble
Water Soluble | CC[C@H]1OC(=O)[C@H](C)[C@@H](O[C@H]2C[C@@](C)(OC)[C@@H](O)[C@H](C)O2)[C@H](C)[C@@H](O[C@@H]2O[C@H](C)C[C@H](N(C)C)[C@H]2O)[C@](C)(O)C[C@@H](C)CN(C)[C@H](C)[C@@H](O)[C@]1(C)O [Azithromycin-dihydrate] | Insoluble
 | O=C1CCc2ccc(OCCCCN3CCN(c4cccc(Cl)c4Cl)CC3)cc2N1 [Aripiprazole, 99%, Aripiprazole] | Insoluble
 | C[C@@H](O[C@H]1OCCN(Cc2n[nH]c(=O)[nH]2)[C@H]1c1ccc(F)cc1)c1cc(C(F)(F)F)cc(C(F)(F)F)c1 [Aprepitant] | Insoluble
 | CCc1cccc2c3c([nH]c12)C(CC)(CC(=O)O)OCC3 (stereo not shown) [Etodolac] | Insoluble
Water Soluble | CCC(=O)O[C@]1(C(=O)SCF)[C@H](C)C[C@H]2[C@@H]3C[C@H](F)C4=CC(=O)C=C[C@]4(C)[C@@]3(F)[C@@H](O)C[C@@]21C [Fluticasone Propionate] | Insoluble

Solubility with Polyphenolic Polymer in water (more than 99%) [1] | Molecule | Reported Solubility in water [2]
Water Soluble | CC(=O)Oc1ccccc1C(=O)O [Aspirin] | Insoluble
 | CC(=O)O[C@H]1C(=O)[C@@]2(C)[C@H]([C@H](OC(=O)c3ccccc3)[C@]3(O)C[C@H](OC(=O)[C@H](O)[C@@H](NC(=O)c4ccccc4)c4ccccc4)C(C)=C1C3(C)C)[C@]1(OC(C)=O)CO[C@@H]1C[C@@H]2O [Paclitaxel from Taxus Brevifolia, Paclitaxel] | Insoluble
 | COc1cccc2c1C(=O)c1c(O)c3c(c(O)c1C2=O)C[C@@](O)(C(C)=O)C[C@@H]3O[C@H]1C[C@H](N)[C@H](O)[C@H](C)O1 [Daunorubicin hydrochloride] | Insoluble
 | COc1ccc2c(c1)c(CC(=O)O)c(C)n2C(=O)c1ccc(Cl)cc1 [Indomethacin] | Insoluble
 | COCCOC(=O)C1=C(C)NC(C)=C(C(=O)OC(C)C)C1c1cccc([N+](=O)[O-])c1 (stereo not shown) [Nimodipine] | Insoluble
Water Soluble | CCC(C)n1ncn(-c2ccc(N3CCN(c4ccc(OCC5COC(Cn6cncn6)(c6ccc(Cl)cc6Cl)O5)cc4)CC3)cc2)c1=O (stereo not shown) [Itraconazole] | Insoluble
 | COC(=O)[C@H](c1ccccc1Cl)N1CCc2sccc2C1 [Clopidogrel Sulfate] | Insoluble
 | COc1ccc2c(c1)c(CC(=O)OCC(=O)O)c(C)n2C(=O)c1ccc(Cl)cc1 [Acemetacin] | Insoluble
 | CO/N=C(\C(=O)N[C@@H]1C(=O)N2C(C(=O)O)=C(COC(C)=O)CS[C@H]12)c1csc(N)n1 [Cefotaxime] | Insoluble
 | C[C@@H]1CC[C@H]2[C@@H](C)C(=O)O[C@@H]3O[C@@]4(C)CC[C@@H]1[C@]32OO4 [Artemisinin] | Insoluble
 | CN(C)CCC[C@@]1(c2ccc(F)cc2)OCc2cc(C#N)ccc21 [Escitalopram] | Insoluble
 | Oc1ccc(C=Cc2cc(O)cc(O)c2)cc1 [Resveratrol] | Insoluble
 | Nc1nnc(-c2cccc(Cl)c2Cl)c(N)n1 [6-(2,3-Dichlorophenyl)-1,2,4-triazine-3,5-diamine] | Insoluble
 | O=C(O)Cc1ccccc1Nc1c(Cl)cccc1Cl [Diclofenac(pain), Diclofenac] | Insoluble
 | C[C@]12C=CC(=O)C=C1CC[C@@H]1[C@@H]2C(=O)C[C@@]2(C)[C@H]1CC[C@]2(O)C(=O)CO [Prednisone] | Insoluble
 | CC(=O)Nc1ccc(O)cc1 [Paracetamol] | Insoluble
 | COc1ccc(CCN2CCC(Nc3nc4ccccc4n3Cc3ccc(F)cc3)CC2)cc1 [Astemizole] | Insoluble
 | Cc1cc2c(s1)Nc1ccccc1N=C2N1CCN(C)CC1 [Olanzapine] | Insoluble
 | Cn1cnc([N+](=O)[O-])c1Sc1ncnc2nc[nH]c12 [Azathioprine] | Insoluble
 | COC1=CC(=O)C[C@@H](C)[C@]12Oc1c(Cl)c(OC)cc(OC)c1C2=O [Griseofulvin] | Insoluble
 | CC[C@H](C)C(=O)O[C@H]1CCC=C2C=C[C@H](C)[C@H](CC[C@@H]3C[C@@H](O)CC(=O)O3)[C@H]21 [Mevastatin] | Insoluble
 | COc1ccccc1OCCNCC(O)COc1cccc2[nH]c3ccccc3c12 (stereo not shown) [Carvedilol] | Insoluble
 | Nc1ncn([C@@H]2O[C@H](CO)[C@@H](O)[C@H]2O)c(=O)n1 [Azacitidine (Vidaza), Azacitidine] | Insoluble

Molecule | Solubility with Polyphenolic Polymer in water (more than 99%) [1] | Reported Solubility in water [2]
N[C@@H](Cc1ccc(N(CCCl)CCCl)cc1)C(=O)O [Melphalan(cancer), Melphalan] | Water Soluble | 
CC[C@H](CC[C@@H](C)[C@H]1CC[C@H]2[C@@H]3CC=C4C[C@@H](O)CC[C@]4(C)[C@H]3CC[C@]12C)C(C)C [Beta-sitosterol] | Water Soluble | 
CN1C[C@H](C(=O)N[C@]2(C)O[C@@]3(O)[C@@H]4CCCN4C(=O)[C@H](Cc4ccccc4)N3C2=O)C[C@@H]2c3cccc4[nH]cc(c34)C[C@H]21 [Dihydroergotamine Mesylate] | Water Soluble | Insoluble
C/C(=C\c1csc(C)n1)[C@@H]1C[C@@H]2O[C@@H]2CCC[C@H](C)[C@H](O)[C@@H](C)C(=O)C(C)(C)[C@@H](O)CC(=O)O1 [Epothilone A] | Water Soluble | 
CC[C@@]1(O)C(=O)OCc2c1cc1n(c2=O)Cc2cc3ccccc3nc2-1 [Camptothecin] | Water Soluble | Insoluble
Pyrethrin | Water Soluble | 
Ivermectin | Water Soluble | 
C[C@@H]1[C@H](O)[C@@H](C)/C=C/C=C/CC/C=C/C=C/C=C/C=C/C(O[C@H]2O[C@H](C)[C@@H](O)[C@H](N)[C@@H]2O)CC2O[C@](O)(CC(O)C(O)CCC(O)CC(O)CC(O)CC(=O)O[C@H]1C)CC(O)C2C(=O)O (stereo partly shown) [Nystatin mycostatin] | Water Soluble | 
